Experimental data as given in US9480261B1, “Insecticidal strain of Serratia for control of brown marmorated stink bug (BMSB), Halyomorpha halys” (priority 2014, dated 2016).

Assays:
Assay in all cases: Antibiotic susceptibility, disk method on L-agar; for Antibiotic resistance of strain ATCC 13880: key: R—Resistant; I—Intermediate; S—Susceptible; for Antibiotic resistance of strain BF1: key: R—Resistant; I—Intermediate; S—Susceptible; for Antibiotic resistance of strain NRRL B-50575: key: R—Resistant; I—Intermediate; S—Susceptible; for Antibiotic resistance of strain TBSB-08: key: R—Resistant; I—Intermediate; S—Susceptible; for Antibiotic resistance of strain TBSB-09: key: R—Resistant; I—Intermediate; S—Susceptible
TBSB-08 = format: cell-based; details: 25° C.
Protocol: (§1) Antibiotic Susceptibility: Two agar plates were streaked for growth with NRRL B-50575, and 8 paper discs, each soaked in a different antibiotic, were placed on the agar, with 4 discs on each plate. Disks containing the following antibiotics were used/obtained from Remel (Lenexa Kans.): ampicillin (10 μg), chloramphenicol (30 μg), erythromycin (30 μg), kanamycin (30 μg), neomycin (30 μg), tetracycline (30 μg), triple sulfa (300 μg) and vancomycin (30 μg). The plates were incubated for 24 hours at 25° C., and after this incubation period the zone of inhibition around each disc was measured.
(§2) The diffusible pink pigment (FIG. 4) produced by NRRL B-50575 (TP 07) was different from the red pigment of BF1 and ATCC 13880 (ATCC-SM), and the pigment was made at temperatures below 25° C. Antibiotic susceptibility was determined using the disk method per manufacturer's instructions on L-agar, incubated at 25° C. (Table 6). All of the pink bacterial strains had the similar antibiotic resistance. They differed in sensitivity to tetracycline, kanamycin, and chloramphenicol. They also differed from BF1 and ATCC 13880 in sensitivity to erythromycin.

TBSB-09 = format: cell-based; details: 25° C.
Protocol: as §1, §2

Serratia marcesans BF1 = format: cell-based, Serratia marcescens; details: 25° C.
Protocol: as §1, §2

ATCC 13880 = format: cell-based, Serratia marcescens; details: 25° C.
Protocol: as §1, §2

NRRL B-50575 = format: cell-based, Serratia; details: for Antibiotic resistance of strain NRRL B-50575: disk method, L-agar, 25° C.; for resistance to antibiotics of NRRL B-50575 (in words): list of identifying characteristics
Protocol: as §1, §2

Compound | Antibiotic resistance of strain TBSB-08 (TBSB-08) | Antibiotic resistance of strain TBSB-09 (TBSB-09) | Antibiotic resistance of strain BF1 (Serratia marcesans BF1) | Antibiotic resistance of strain ATCC 13880 (ATCC 13880) | Antibiotic resistance of strain NRRL B-50575 (NRRL B-50575) | resistance to antibiotics of NRRL B-50575 (in words) (NRRL B-50575)
CC1(C)S[C@@H]2[C@H](NC(=O)[C@H](N)c3ccccc3)C(=O)N2[C@H]1C(=O)O [Ampicillin, ampicillin] | R | R | R | R | R | resistant
O=C(N[C@H](CO)[C@H](O)c1ccc([N+](=O)[O-])cc1)C(Cl)Cl [Chloramphenicol, chloramphenicol] | I | S | S | I | I | intermediate
CC[C@H]1OC(=O)[C@H](C)[C@@H](O[C@H]2C[C@@](C)(OC)[C@@H](O)[C@H](C)O2)[C@H](C)[C@@H](O[C@@H]2O[C@H](C)C[C@H](N(C)C)[C@H]2O)[C@](C)(O)C[C@@H](C)C(=O)[C@H](C)[C@@H](O)[C@]1(C)O [Erythromycin, erythromycin] | R | R | I | I | R | resistant
NC[C@H]1O[C@H](O[C@H]2[C@H](O)[C@@H](O[C@H]3O[C@H](CO)[C@@H](O)[C@H](N)[C@H]3O)[C@H](N)C[C@@H]2N)[C@H](O)[C@@H](O)[C@@H]1O [Kanamycin, kanamycin] | I | S | S | S | S | 
CN(C)[C@@H]1C(O)=C(C(N)=O)C(=O)[C@@]2(O)C(O)=C3C(=O)c4c(O)cccc4[C@@](C)(O)[C@H]3C[C@@H]12 [Tetracycline, tetracycline] | I | R | R | R | I | 
CN[C@H](CC(C)C)C(=O)N[C@H]1C(=O)N[C@@H](CC(N)=O)C(=O)N[C@H]2C(=O)N[C@H]3C(=O)N[C@H](C(=O)N[C@H](C(=O)O)c4cc(O)cc(O)c4-c4cc3ccc4O)[C@H](O)c3ccc(c(Cl)c3)Oc3cc2cc(c3O[C@@H]2O[C@H](CO)[C@@H](O)[C@H](O)[C@H]2O[C@H]2C[C@](C)(N)[C@H](O)[C@H](C)O2)Oc2ccc(cc2Cl)[C@H]1O [Vancomycin, vancomycin] | R | R | R | R | R | resistant
neomycin | S | S | S | S | S | susceptible
